Laboratory results as given in patent US11173150B2, “Method for diagnosing, preventing, and treating neurological diseases” (United States Government As Represented By The Department …, priority 2010, dated 2021).

What was measured:
Desulfovibrio = assay: Antimicrobial susceptibility testing, CLSI serial two-fold plate dilution; type: cell-based; details: for MIC: Desulfovibrio
[1] = Open-label trial of oral vancomycin in children with regressive onset autism; type: in vivo, human
Description: To explore whether our index case's improvement represented a true therapeutic effect, institutional human investigation committee approval was obtained for an open-label trial in a narrowly defined subgroup of autistic children. Eleven children (10 males, 1 female; age range: 43-84 months) were enrolled. Inclusion criteria for the study were derived from our central hypothesis and index case characteristics. They include 1) Meets diagnostic criteria for Autistic Disorder (DSM IV 299.00); 2) Other genetic and medical diagnoses have been adequately evaluated and ruled out; 3) Definable, rapid onset after 12 months of age; 4) Antecedent antimicrobial use (<2 months of autism symptom onset); 5) Persistent loose stool history, with diarrhea onset before autism symptoms; 6) Symptoms for <4 years; 7) Child is 2-8 years of age; 8) No evidence of any significant medical problem that might complicate treatment such as renal, cardiac or pulmonary disease, severe enterocolitis (visible blood or pus in the stool), or chronic infection (e.g., tuberculosis); and 9) Clinically static for 3 months (no new neuroleptic, seizure, or other medications), with no elective changes during the study, and 10) No antimicrobial use for at least 2 months prior to entry into the study. All children had diarrhea and regressive onset of autistic features (occurring at a mean of 17.7±3.4 months) as previously defined in the literature.
The Developmental Profile II provided descriptive developmental levels to contrast with developmental age. […] The Childhood Autism Rating Scale (CARS) was also administered. The CARS is a 15-item behavioral rating scale developed to identify children with autism, and to distinguish them from developmentally handicapped children without the autism syndrome. Based upon CARS diagnostic categories, six children met the criteria for severe autism, two for moderate autism, and three for mild autism. The vancomycin dose was 500 mg/day given orally as a liquid (500 mg/6 ml), divided into 2 ml TID for eight weeks. This was followed by four weeks of oral treatment with a probiotic mixture of Lactobacillus acidophilus, L. bulgaricus, and Bifidobacterium bifidum (40×10^9 cfu/ml).
Two measures of potential improvement were examined: I) Children were videotaped for 30 minutes at baseline and once during therapy in a playroom environment. At each session, the child was directed to play with a series of puzzles, books, blocks, and dolls by the mother and then by the evaluator. At the end of the trial, a clinical child psychologist (who was provided with a brief explanation of our working hypothesis) compared coded, paired videotapes of 10 of the 11 children studied (video was not available for one child). The psychologist viewed each pair of tapes and scored them. […] 2) Behavior and communication analog rating scales were completed by the study physician at baseline, during therapy, and at follow-up in a manner similar to previously validated methods for other disease states. Results are presented as median scores to account for potential non-linear score increment.

[2] = Index case: 12 week therapeutic trial of oral vancomycin; type: in vivo, human; details: 125 mg QID oral, 12 weeks; person
Description: […] Diarrhea began after three 10 day courses of broad spectrum antimicrobials prescribed over a six week period for “chronic otitis media.” There was no blood or pus in the stool nor associated constitutional symptoms. There was profound behavioral and developmental deterioration, along with emergence of severe autistic features.
A 12 week therapeutic trial of oral vancomycin (125 mg QID) was begun with expanded observations by a pediatric neuropsychologist pre- and post-treatment. At baseline, the child was not on a special diet nor was […] taking any vitamin supplements. Three days after initiation of the vancomycin therapy, a hyperactivity pattern emerged which lasted for four days. […] became affectionate and relatively calm. […] promptly achieved toilet training and increased vocabulary. Follow-up behavioral observations after eight weeks of therapy noted an increase in on-task performance, compliance with parental requests, awareness of environmental surroundings, and persistence when engaging in positive activities. A significant reduction in repetitive and self-stimulatory behaviors was also noted. The child's educational therapies remained unchanged for both six months before and during the vancomycin trial. Shortly after vancomycin discontinuation, behavioral deterioration was observed. Though still improved over baseline, […] eventually lost most of the initial gains.

[3] = oral administration; cited from earlier work

CN[C@H](CC(C)C)C(=O)N[C@H]1C(=O)N[C@@H](CC(N)=O)C(=O)N[C@H]2C(=O)N[C@H]3C(=O)N[C@H](C(=O)N[C@H](C(=O)O)c4cc(O)cc(O)c4-c4cc3ccc4O)[C@H](O)c3ccc(c(Cl)c3)Oc3cc2cc(c3O[C@@H]2O[C@H](CO)[C@@H](O)[C@H](O)[C@H]2O[C@H]2C[C@](C)(N)[C@H](O)[C@H](C)O2)Oc2ccc(cc2Cl)[C@H]1O [Vancomycin]
512 mg/L: MIC (Desulfovibrio; Desulfovibrio strain 9976)
1 mg/L: MIC (Desulfovibrio; Desulfovibrio type strain 29098^T)
improvement: Analog rating scale, communication ([1]; unblinded, group as a whole, Wilcoxon Signed Ranks Z=2.9 p=0.003) | Analog rating scale, behavior ([1]; unblinded, group as a whole, Wilcoxon Signed Ranks Z=-2.9, p=0.003)
eight of ten: Blinded assessment of coded, paired videotapes: children with improvement during therapy ([1]; 500 mg/day orally for eight weeks, no change in one, possible deterioration in one)
2-5,000 mcg/gm: Fecal levels after oral administration [3]
> 512 mg/L: MIC (Desulfovibrio; Desulfovibrio strain 4019) | MIC (Desulfovibrio; Desulfovibrio strain 8381) | MIC (Desulfovibrio; Desulfovibrio strain 8907) | MIC (Desulfovibrio; Desulfovibrio strain 8933) | MIC (Desulfovibrio; Desulfovibrio strain 8951) | MIC (Desulfovibrio; Desulfovibrio strain 9070) | MIC (Desulfovibrio; Desulfovibrio strain 9120) | MIC (Desulfovibrio; Desulfovibrio strain 9706) | MIC (Desulfovibrio; Desulfovibrio strain 11094) | MIC (Desulfovibrio; Desulfovibrio strain 11232) | MIC (Desulfovibrio; Desulfovibrio strain 11346) | MIC (Desulfovibrio; Desulfovibrio strain 11437) | MIC (Desulfovibrio; Desulfovibrio strain 11568) | MIC (Desulfovibrio; Desulfovibrio strain 11623) | MIC (Desulfovibrio; Desulfovibrio strain 11717) | MIC (Desulfovibrio; Desulfovibrio strain 11789) | MIC (Desulfovibrio; Desulfovibrio strain 11830) | MIC (Desulfovibrio; Desulfovibrio strain 11949) | MIC (Desulfovibrio; Desulfovibrio strain 13966) | MIC (Desulfovibrio; Desulfovibrio type strain 7757^T)
six: Children with brief (1-4 days) period of hyperactivity ([1]; within three days of initiating antibiotic treatment, eleven children enrolled)
256 mg/L: MIC (Desulfovibrio; Desulfovibrio strain 8236) | MIC (Desulfovibrio; Desulfovibrio strain 10831) | MIC (Desulfovibrio; Desulfovibrio strain 11081) | MIC (Desulfovibrio; Desulfovibrio strain 11378) | MIC (Desulfovibrio; Desulfovibrio strain 12379)
returned towards baseline: Analog ratings at long-term follow-up ([1]; two to eight months after discontinuance, in all but one child)
rapid and dramatic clinical improvement: Clinical outcome of index case [2]
two: Time to substantial behavioral deterioration after discontinuance ([1]; reported by most parents, telephone follow-up)
not very active on a weight basis: MIC against Desulfovibrio, summary in words (Desulfovibrio; discussion of Table 14)
